Laboratory results published in patent US12723063B2, “GIPR-agonist compounds” (Eli Lilly and Company, priority 2019, dated 2026).

Legend:
[1] = system: CD4+ T cells (CD8+ T cell-depleted PBMCs); experiment: CD4+ T cell proliferation assay (immunogenicity assessment); type: cell-based, human; settings: 0.33 μM, 7 days, 10 healthy donors; positive response CDI>2.5
Description: Protein therapeutics that induce less than 30% positive response in the CD4+ T cell proliferation assay are associated with a low risk of immunogenicity. Briefly, to assess the propensity for a clinical immunogenic response to the compounds of Examples 1, 2, 3, 5, and 6, CD8+ T cell-depleted peripheral blood mononuclear cells (PBMCs) are prepared and labeled with carboxyfluorescein diacetate succinimidyl ester (CFSE; Invitrogen) from a cohort of 10 healthy donors with diverse human leukocyte antigen (HLA) class II haplotypes. Each donor is tested in triplicate with 2.0 mL media control, keyhole limpet hemocyanin (KLH: 0.33 μM), and the compounds of Examples 1, 2, 3, 5, and 6 (0.33 μM). Cultures are incubated for 7 days at 37° C. with 5% CO2. On day 7, samples are analyzed by flow cytometry using a BD LSR II Fortessa (Becton Dickinson; Franklin Lakes, NJ), equipped with a high throughput sampler (HTS). Data is analyzed using FlowJo® Software (FlowJo, LLC/TreeStar; Ashland, OR).
• Cell Division Index (“CDI”): proportion of divided CD4+ T cells to the total number of CD4+ T cells in stimulated versus unstimulated samples.

[2] = Pharmacokinetics in male cynomolgus monkeys, single subcutaneous administration; type: in vivo, cynomolgus monkey; settings: 50 nmol/kg single SC, mean n = 2
Description: The pharmacokinetics of select Examples are evaluated following a single subcutaneous administration of 50 nmol/kg to male cynomolgus monkeys. Blood samples are collected over 504 hours and resulting individual plasma concentrations are used to calculate pharmacokinetic parameters. Peptide plasma (K3 EDTA) concentrations are determined using a qualified LC/MS method that measured the intact mass of the compound. Each peptide and an analog as an internal standard are extracted from 100% cynomolgus monkey plasma using a protein precipitation method. Instruments are combined for LC/MS detection.

[3] = target: T1, human glucagon receptor (GcgR) (Homo sapiens, UniProt P47871); experiment: cAMP functional assay (HTRF) in HEK293 cells in presence of 0.1% casein; type: cell-based; settings: HEK293 cells expressing human GcgR, geometric mean, read-out: hGcgR cAMP Rel EC50 nM (SEM, n)
T1 construct: expressed in transfected cells; host or cells: HEK293

[4] = target: T2, human GLP-1 receptor (GLP-1R) (Homo sapiens, UniProt P43220); experiment: as above; type: cell-based; settings: HEK293 cells expressing human GLP-1R, geometric mean, read-out: hGLP1R cAMP Rel EC50 nM (SEM, n)
T2 construct: expressed in transfected cells; host or cells: HEK293

[5] = target: T3, human glucose-dependent insulinotropic peptide receptor (GIPR) (Homo sapiens, UniProt P48546); experiment: as above; type: cell-based; settings: HEK293 cells expressing human GIPR, geometric mean, read-out: hGIPR cAMP Rel EC50 nM (SEM, n)
T3 construct: expressed in transfected cells; host or cells: HEK293
T3 sequence (P48546 22-466): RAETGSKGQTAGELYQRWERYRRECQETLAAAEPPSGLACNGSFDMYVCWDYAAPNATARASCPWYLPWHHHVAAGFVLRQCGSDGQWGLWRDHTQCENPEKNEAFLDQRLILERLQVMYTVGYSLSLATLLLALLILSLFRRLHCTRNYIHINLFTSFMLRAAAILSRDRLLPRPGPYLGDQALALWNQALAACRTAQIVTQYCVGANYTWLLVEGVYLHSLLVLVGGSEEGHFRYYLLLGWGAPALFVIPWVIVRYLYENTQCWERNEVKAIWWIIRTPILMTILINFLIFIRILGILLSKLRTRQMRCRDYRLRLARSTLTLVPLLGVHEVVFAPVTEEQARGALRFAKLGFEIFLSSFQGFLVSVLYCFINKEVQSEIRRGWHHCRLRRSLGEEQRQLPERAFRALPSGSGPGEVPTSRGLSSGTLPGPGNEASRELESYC

T1 sequence (P47871 26-477): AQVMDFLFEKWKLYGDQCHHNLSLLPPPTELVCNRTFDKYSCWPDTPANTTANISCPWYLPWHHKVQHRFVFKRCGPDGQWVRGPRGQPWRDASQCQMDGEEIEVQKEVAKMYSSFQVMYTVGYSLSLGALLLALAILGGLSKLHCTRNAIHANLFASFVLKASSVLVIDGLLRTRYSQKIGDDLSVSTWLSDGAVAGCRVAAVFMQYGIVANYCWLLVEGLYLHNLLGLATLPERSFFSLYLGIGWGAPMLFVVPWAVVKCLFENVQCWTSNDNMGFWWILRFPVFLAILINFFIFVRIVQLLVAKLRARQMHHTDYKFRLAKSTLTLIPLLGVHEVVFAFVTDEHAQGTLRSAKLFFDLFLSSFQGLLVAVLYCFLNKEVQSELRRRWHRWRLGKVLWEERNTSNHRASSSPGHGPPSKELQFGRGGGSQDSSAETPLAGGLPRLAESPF
T2 sequence (P43220 24-463): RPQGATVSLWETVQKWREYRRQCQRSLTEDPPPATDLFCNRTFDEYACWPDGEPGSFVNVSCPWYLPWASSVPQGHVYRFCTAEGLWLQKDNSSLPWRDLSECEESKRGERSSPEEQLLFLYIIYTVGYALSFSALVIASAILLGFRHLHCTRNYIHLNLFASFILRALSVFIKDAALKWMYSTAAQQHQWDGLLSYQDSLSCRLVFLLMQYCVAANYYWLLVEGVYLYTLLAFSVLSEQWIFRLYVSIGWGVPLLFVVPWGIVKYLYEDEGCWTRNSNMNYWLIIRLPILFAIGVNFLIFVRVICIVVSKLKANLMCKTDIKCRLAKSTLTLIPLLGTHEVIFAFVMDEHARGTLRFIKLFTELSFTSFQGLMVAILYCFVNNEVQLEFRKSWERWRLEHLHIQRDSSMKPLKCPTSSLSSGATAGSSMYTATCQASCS

In the case of `CC[C@H](C)[C@H](NC(=O)[C@H](Cc1ccccc1)NC(=O)[C@@H](NC(=O)CNC(=O)[C@H](CCC(=O)O)NC(=O)C(C)(C)NC(=O)[C@@H](N)Cc1ccc(O)cc1)[C@@H](C)O)C(=O)N[C@@H](CO)C(=O)N[C@@H](CC(=O)O)C(=O)N[C@@H](Cc1ccc(O)cc1)C(=O)N[C@@H](CO)C(=O)N[C@H](C(=O)N[C@@](C)(CC(C)C)C(=O)N[C@@H](CC(C)C)C(=O)N[C@@H](CC(=O)O)C(=O)N[C@@H](CCCCN)C(=O)N[C@@H](CCCCNC(=O)COCCOCCNC(=O)COCCOCCNC(=O)CC[C@H](NC(=O)CCCCCCCCCCCCCCCCCCC(=O)O)C(=O)O)C(=O)N[C@@H](Cc1c[nH]cn1)C(=O)N[C@@H](CCC(N)=O)C(=O)NC(C)(C)C(=O)N[C@@H](CC(=O)O)C(=O)N[C@@H](Cc1ccccc1)C(=O)N[C@H](C(=O)N[C@@H](CCC(=O)O)C(=O)N[C@@H](Cc1ccncc1)C(=O)N[C@@H](CC(C)C)C(=O)N[C@@H](CC(C)C)C(=O)N[C@@H](CCC(=O)O)C(=O)N[C@@H](C)C(=O)NCC(=O)N1CCC[C@H]1C(=O)N[C@@H](CO)C(=O)N[C@@H](CO)C(=O)NCC(=O)N[C@@H](C)C(=O)N1CCC[C@H]1C(=O)N1CCC[C@H]1C(=O)N1CCC[C@H]1C(=O)N[C@@H](CO)C(N)=O)C(C)C)[C@@H](C)CC` [Example 3], the “% Donor Response (n = 10)” value [1] is reported as 0%, the AUCInf/Dose [2] is reported as 1764 hr*kg*nmol/L/nmol and the Cmax/Dose [2] is reported as 12.1 kg*nmol/L/nmol. For the same compound, the CL/F ([2]; cynomolgus monkey, plasma) was 13.7 mL/day/kg, the Tmax ([2]; cynomolgus monkey, plasma) was 60 h and the half-life ([2]; cynomolgus monkey, plasma) was 88.8 h. It also gave an EC50 [3] of 1250 nM, an EC50 [4] greater than 5000 nM and an EC50 [5] of 0.0178 nM.
